In patent US11780830B2, “Triazolone derivatives or salts thereof and pharmaceutical compositions comprising the same” (YUHAN CORPORATION, priority 2018, dated 2023):

Legend:
Assay type in all cases: biochemical
recombinant human VAP-1 = molecular target: T1, recombinant human VAP-1 (Homo sapiens, UniProt Q16853); assay: Activity on recombinant human VAP-1, HRP-coupled Amplex Red hydrogen peroxide assay; conditions: substrate 1 mM benzylamine; compound incubated with enzyme at 37° C. for 30 minutes; pH 7.4; read-out: Inhibitory Activity (IC50, nM) human VAP-1
T1 construct: purchased R&D systems
T1 sequence (Q16853 1-763): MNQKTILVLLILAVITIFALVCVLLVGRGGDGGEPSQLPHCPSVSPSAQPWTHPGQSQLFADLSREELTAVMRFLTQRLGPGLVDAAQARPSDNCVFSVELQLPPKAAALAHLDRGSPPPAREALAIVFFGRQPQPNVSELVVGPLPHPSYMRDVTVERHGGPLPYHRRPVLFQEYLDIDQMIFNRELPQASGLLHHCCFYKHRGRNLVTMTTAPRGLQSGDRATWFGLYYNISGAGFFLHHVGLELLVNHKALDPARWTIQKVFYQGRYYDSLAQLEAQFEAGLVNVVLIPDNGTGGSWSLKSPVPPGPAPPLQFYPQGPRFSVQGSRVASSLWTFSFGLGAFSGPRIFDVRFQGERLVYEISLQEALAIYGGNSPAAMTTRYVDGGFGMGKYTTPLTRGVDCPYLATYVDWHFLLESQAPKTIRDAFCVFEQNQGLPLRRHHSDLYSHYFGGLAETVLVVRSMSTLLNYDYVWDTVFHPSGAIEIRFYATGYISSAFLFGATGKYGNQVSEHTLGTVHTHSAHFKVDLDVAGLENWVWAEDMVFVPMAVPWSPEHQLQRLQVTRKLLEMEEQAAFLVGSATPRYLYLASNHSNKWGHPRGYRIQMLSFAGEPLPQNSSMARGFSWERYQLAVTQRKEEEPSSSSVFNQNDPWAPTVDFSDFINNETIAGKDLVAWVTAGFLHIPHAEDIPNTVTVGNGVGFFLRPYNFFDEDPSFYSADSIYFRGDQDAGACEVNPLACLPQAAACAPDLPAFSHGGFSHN
Outline: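 Fluorescence of resorufin formed from H2O2 (ex 544 nm, em 590 nm) was tracked for 1-2 h after adding 1 mM benzylamine, 200 uM Amplex Red and 1 U/mL HRP to enzyme pretreated with compound for 30 min at 37 °C. IC50 values derive from four-variable logistic fits.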

[1] = molecular target: T2, recombinant human MAO-A (monoamine oxidase-A) (Homo sapiens, UniProt P21397); assay: Activity on recombinant human MAO-A, method similar to the VAP-1 assay; conditions: substrate 0.5 mM tyramine; read-out: Inhibitory Activity (IC50, nM) MAO-A
T2 construct: purchased Sigma-Aldrich
T2 sequence (P21397 1-527): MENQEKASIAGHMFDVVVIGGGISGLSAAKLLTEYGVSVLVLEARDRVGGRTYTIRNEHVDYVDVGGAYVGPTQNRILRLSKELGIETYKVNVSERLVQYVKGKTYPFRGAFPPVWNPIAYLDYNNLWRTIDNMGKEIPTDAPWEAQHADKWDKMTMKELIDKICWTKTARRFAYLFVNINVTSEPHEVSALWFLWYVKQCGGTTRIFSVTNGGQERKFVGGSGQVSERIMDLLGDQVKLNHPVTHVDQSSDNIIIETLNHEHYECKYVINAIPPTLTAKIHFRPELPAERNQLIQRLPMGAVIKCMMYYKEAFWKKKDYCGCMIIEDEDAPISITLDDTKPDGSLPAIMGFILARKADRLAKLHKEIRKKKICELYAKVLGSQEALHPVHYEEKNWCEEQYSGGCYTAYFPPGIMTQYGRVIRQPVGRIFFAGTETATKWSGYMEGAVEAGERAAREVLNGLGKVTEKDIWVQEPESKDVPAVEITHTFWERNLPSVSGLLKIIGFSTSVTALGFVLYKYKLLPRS
Outline: (§1)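 Fluorescence (544/590 nm) of resorufin formed from Amplex Red by HRP and enzyme-generated H2O2 was followed over 1-2 h. Substrates were 0.5 mM tyramine for MAO-A and 1 mM benzylamine for MAO-B; compounds were preincubated with enzyme for 30 min at 37° C. IC50 came from four-parameter logistic fitting of signal-rate inhibition.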

[2] = molecular target: T3, recombinant human MAO-B (monoamine oxidase-B) (Homo sapiens, UniProt P27338); assay: Activity on recombinant human MAO-B, method similar to the VAP-1 assay; conditions: substrate 1 mM benzylamine; read-out: Inhibitory Activity (IC50, nM) MAO-B
T3 construct: purchased Sigma-Aldrich
T3 sequence (P27338 1-520): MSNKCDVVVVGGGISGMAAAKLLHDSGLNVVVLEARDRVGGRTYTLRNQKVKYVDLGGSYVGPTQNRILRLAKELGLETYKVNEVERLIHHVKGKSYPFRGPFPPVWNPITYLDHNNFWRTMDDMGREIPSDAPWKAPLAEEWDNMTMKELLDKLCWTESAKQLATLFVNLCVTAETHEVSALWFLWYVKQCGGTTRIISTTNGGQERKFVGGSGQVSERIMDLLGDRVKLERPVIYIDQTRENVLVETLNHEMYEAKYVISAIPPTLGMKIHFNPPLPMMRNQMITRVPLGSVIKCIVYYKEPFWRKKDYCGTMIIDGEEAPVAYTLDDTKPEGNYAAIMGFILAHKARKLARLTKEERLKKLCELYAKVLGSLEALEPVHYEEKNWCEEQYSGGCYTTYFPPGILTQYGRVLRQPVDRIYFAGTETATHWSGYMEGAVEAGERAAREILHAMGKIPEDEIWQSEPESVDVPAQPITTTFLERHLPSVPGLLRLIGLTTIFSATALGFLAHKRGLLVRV
Outline: as §1

[3] = molecular target: T4, recombinant human DAO (diamine oxidase) (Homo sapiens, UniProt P19801); assay: Activity on recombinant human DAO, method similar to the VAP-1 assay; conditions: substrate 1 mM putrescine; read-out: Inhibitory Activity (IC50, nM) DAO
T4 construct: purchased R&D systems
T4 sequence (P19801 20-751): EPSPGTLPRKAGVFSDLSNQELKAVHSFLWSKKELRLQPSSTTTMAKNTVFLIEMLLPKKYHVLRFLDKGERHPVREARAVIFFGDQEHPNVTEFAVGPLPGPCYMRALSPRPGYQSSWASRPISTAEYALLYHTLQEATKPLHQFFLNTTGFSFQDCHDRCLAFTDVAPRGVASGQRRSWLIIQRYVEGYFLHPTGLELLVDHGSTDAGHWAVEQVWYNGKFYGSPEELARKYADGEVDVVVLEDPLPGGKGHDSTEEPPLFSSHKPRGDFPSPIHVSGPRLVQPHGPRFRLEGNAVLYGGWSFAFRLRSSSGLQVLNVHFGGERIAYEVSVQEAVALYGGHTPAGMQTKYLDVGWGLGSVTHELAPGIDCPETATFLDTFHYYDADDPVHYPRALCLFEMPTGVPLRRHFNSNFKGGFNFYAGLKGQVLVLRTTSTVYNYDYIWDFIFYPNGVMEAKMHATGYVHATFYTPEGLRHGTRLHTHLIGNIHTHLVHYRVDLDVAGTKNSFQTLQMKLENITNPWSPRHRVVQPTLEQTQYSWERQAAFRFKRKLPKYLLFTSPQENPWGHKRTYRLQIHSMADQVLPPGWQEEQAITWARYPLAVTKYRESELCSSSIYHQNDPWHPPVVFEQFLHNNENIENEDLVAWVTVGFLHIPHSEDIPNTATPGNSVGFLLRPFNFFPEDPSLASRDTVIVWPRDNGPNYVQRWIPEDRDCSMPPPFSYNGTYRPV
Outline: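 Inhibition of recombinant human diamine oxidase (DAO, R&D systems) was assessed by the same approach as the VAP-1 assay, using 1 mM putrescine as substrate. Hydrogen peroxide formed was detected through an HRP-coupled Amplex Red reaction yielding fluorescent resorufin, read at 544 nm excitation and 590 nm emission. IC50 values came from four-parameter logistic fitting in GraphPad Prism.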

For CN1C(=O)CCc2cc(-c3ccc4sc(Cn5cnn(C/C(=C/F)CN)c5=O)cc4c3)ccc21 [Example 211, 6-[2-({1-[(2E)-2-(aminomethyl)-3-fluoroprop-2-en-1-yl]-5-oxo-1,5-dihydro-4H-1,2,4-triazol-4-yl}methyl)-1-benzothiophen-5-yl]-1-methyl-3,4-dihydroquinolin-2(1H)-one], the IC50 (recombinant human VAP-1) was 1.9 nM, the IC50 [1] was 49000 nM and the IC50 [2] was 7900 nM. It also gave an IC50 [3] of 1000 nM.

In the case of CN(C)c1ccc(-c2ccc3sc(Cn4cnn(C/C(=C/F)CN)c4=O)cc3c2)cn1 [Example 212, 2-[(2E)-2-(aminomethyl)-3-fluoroprop-2-en-1-yl]-4-({5-[6-(dimethylamino)pyridin-3-yl]-1-benzothiophen-2-yl}methyl)-2,4-dihydro-3H-1,2,4-triazol-3-one], the IC50 (recombinant human VAP-1) is reported as 2.3 nM, the IC50 [1] is reported as 37000 nM and the IC50 [2] is reported as 4900 nM. It also gave an IC50 [3] of 77000 nM.

NC/C(=C\F)Cn1ncn(Cc2cc3cc(-c4ccc(N5CCNCC5)cc4)ccc3s2)c1=O [Example 213, 2-[(2E)-2-(aminomethyl)-3-fluoroprop-2-en-1-yl]-4-({5-[4-(piperazin-1-yl)phenyl]-1-benzothiophen-2-yl}methyl)-2,4-dihydro-3H-1,2,4-triazol-3-one] gave an IC50 (recombinant human VAP-1) of 3 nM, an IC50 [1] greater than 100000 nM and an IC50 [2] of 5200 nM. The IC50 [3] was 1500 nM.

CCn1cc(-c2ccc3sc(Cn4cnn(C/C(=C/F)CN)c4=O)cc3c2)cn1 [Example 214, 2-[(2E)-2-(aminomethyl)-3-fluoroprop-2-en-1-yl]-4-{[5-(1-ethyl-1H-pyrazol-4-yl)-1-benzothiophen-2-yl]methyl}-2,4-dihydro-3H-1,2,4-triazol-3-one] showed an IC50 (recombinant human VAP-1) of 1.6 nM, an IC50 [1] greater than 100000 nM and an IC50 [2] of 2200 nM. The IC50 [3] was 1400 nM.

For NC/C(=C\F)Cn1ncn(CCc2ccc(-c3ccc4c(c3)OCO4)s2)c1=O [Example 215, 2-[(2E)-2-(aminomethyl)-3-fluoroprop-2-en-1-yl]-4-{2-[5-(1,3-benzodioxol-5-yl)thiophen-2-yl]ethyl}-2,4-dihydro-3H-1,2,4-triazol-3-one], the IC50 (recombinant human VAP-1) was 1.3 nM, the IC50 [1] was greater than 100000 nM and the IC50 [2] was 310 nM. The IC50 [3] was 380 nM.

With CS(=O)(=O)c1ccc(-c2ccc(CCn3cnn(C/C(=C/F)CN)c3=O)s2)cc1 [Example 216, 2-[(2E)-2-(aminomethyl)-3-fluoroprop-2-en-1-yl]-4-(2-{5-[4-(methylsulfonyl)phenyl]thiophen-2-yl}ethyl)-2,4-dihydro-3H-1,2,4-triazol-3-one] the IC50 (recombinant human VAP-1) was 0.5 nM, the IC50 [1] was greater than 100000 nM and the IC50 [2] was 37000 nM. It also gave an IC50 [3] of 68 nM.

NC/C(=C\F)Cn1ncn(CCc2ccc(-c3ccc(C(F)(F)F)nc3)s2)c1=O [Example 217, 2-[(2E)-2-(aminomethyl)-3-fluoroprop-2-en-1-yl]-4-(2-{5-[6-(trifluoromethyl)pyridin-3-yl]thiophen-2-yl}ethyl)-2,4-dihydro-3H-1,2,4-triazol-3-one] was tested, and the IC50 (recombinant human VAP-1) was 0.7 nM, the IC50 [1] was greater than 100000 nM and the IC50 [2] was 6900 nM. For the same compound, the IC50 [3] was 61 nM.

Compound Cc1cc(-c2ccc(CCn3cnn(C/C(=C/F)CN)c3=O)s2)cc2c1NC(=O)CC2 [Example 218, 6-[5-(2-{1-[(2E)-2-(aminomethyl)-3-fluoroprop-2-en-1-yl]-5-oxo-1,5-dihydro-4H-1,2,4-triazol-4-yl}ethyl)thiophen-2-yl]-8-methyl-3,4-dihydroquinolin-2(1H)-one] has an IC50 (recombinant human VAP-1) of 0.7 nM, an IC50 [1] greater than 100000 nM and an IC50 [2] of 76000 nM. For the same compound, the IC50 [3] was 200 nM.

CN1C(=O)CCc2cc(-c3ccc(CCn4cnn(C/C(=C/F)CN)c4=O)s3)ccc21 [Example 219, 6-[5-(2-{1-[(2E)-2-(aminomethyl)-3-fluoroprop-2-en-1-yl]-5-oxo-1,5-dihydro-4H-1,2,4-triazol-4-yl}ethyl)thiophen-2-yl]-1-methyl-3,4-dihydroquinolin-2(1H)-one] was tested, and the IC50 (recombinant human VAP-1) was 0.5 nM, the IC50 [1] was greater than 100000 nM and the IC50 [2] was 38000 nM. For the same compound, the IC50 [3] was 120 nM.

CN(C)c1ccc(-c2ccc(CCn3cnn(C/C(=C/F)CN)c3=O)s2)cn1 [Example 220, 2-[(2E)-2-(aminomethyl)-3-fluoroprop-2-en-1-yl]-4-(2-{5-[6-(dimethylamino)pyridin-3-yl]thiophen-2-yl}ethyl)-2,4-dihydro-3H-1,2,4-triazol-3-one] gave an IC50 (recombinant human VAP-1) of 0.7 nM, an IC50 [1] greater than 100000 nM and an IC50 [2] of 25000 nM. It also gave an IC50 [3] of 520 nM.

Compound NC/C(=C\F)Cn1ncn(CCc2ccc(-c3ccc(N4CCNCC4)cc3)s2)c1=O [Example 221, 2-[(2E)-2-(aminomethyl)-3-fluoroprop-2-en-1-yl]-4-(2-{5-[4-(piperazin-1-yl)phenyl]thiophen-2-yl}ethyl)-2,4-dihydro-3H-1,2,4-triazol-3-one] has an IC50 (recombinant human VAP-1) of 1.8 nM, an IC50 [1] greater than 100000 nM and an IC50 [2] greater than 100000 nM. For the same compound, the IC50 [3] was 1420 nM.

CCn1cc(-c2ccc(CCn3cnn(C/C(=C/F)CN)c3=O)s2)cn1 [Example 222, 2-[(2E)-2-(aminomethyl)-3-fluoroprop-2-en-1-yl]-4-{2-[5-(1-ethyl-1H-pyrazol-4-yl)thiophen-2-yl]ethyl}-2,4-dihydro-3H-1,2,4-triazol-3-one] was tested, and the IC50 (recombinant human VAP-1) was 0.7 nM, the IC50 [1] was greater than 100000 nM and the IC50 [2] was 38000 nM. The IC50 [3] was 890 nM.
